In article PMC2635096 (Journal of biological inorganic chemistry : JBIC : a …, 2008):
Like-named read-outs stand apart in the source and are kept apart here.

Key:
[1] = target: NP1 (wild-type nitrophorin 1) (Rhodnius prolixus, UniProt Q26239); assay: UV/Vis ligand titration, equilibrium binding constants
[2] = system: H60C_NP1 (His-60 to Cys-60 mutant of nitrophorin 1); assay: biochemical; format: binding, Rhodnius prolixus; conditions: H60C_NP1 vs NP1
[3] = target: H60C_NP1 (His-60 to Cys-60 mutant of nitrophorin 1) (Rhodnius prolixus, UniProt Q26239, H82C); assay: biochemical; format: binding
H60C_NP1 (His-60 to Cys-60 mutant of nitrophorin 1) (Rhodnius prolixus, UniProt Q26239, H82C), sequence (Q26239 24-207 H82C): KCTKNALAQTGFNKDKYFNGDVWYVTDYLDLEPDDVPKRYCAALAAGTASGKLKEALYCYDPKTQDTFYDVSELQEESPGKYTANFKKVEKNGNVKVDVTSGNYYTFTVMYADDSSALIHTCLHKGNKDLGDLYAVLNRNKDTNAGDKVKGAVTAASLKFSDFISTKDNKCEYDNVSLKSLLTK

[4] = read-out: Dissociation constant (Kd) of ligand complex of NP1, 25°C, PBS buffer (50mM Na-phosphate, 100 mM NaCl, pH 7.4), UV/Vis titration

NP1 (wild-type nitrophorin 1), sequence (Q26239 24-207): as the sequence (Q26239 24-207 H82C) above, with C59H counted along it

Row | SMILES | Kd [1, 4] [nM] | Kd ([1]; read-out: Dissociation constant (Kd) of ligand complex of NP1, 25°C, PBS buffer (50mM Na-phosphate, 100 mM NaCl, pH 7.4), UV/Vis titration, listed as imidazole) [nM] | Increase in dissociation constant for H60C_NP1 relative to NP1 [2] | Kd [3] [nM] | Kd [1] [nM]
1 | c1c[nH]cn1 [Imidazole] | 255 | 250 |  |  | 
2 | CCCCn1ccnc1 [N-(n-Butyl)imidazole] | 52 |  |  |  | 
3 | Cc1c[nH]cn1 [4-Methylimidazole] |  |  | more than three orders of magnitude | 560000 | 182
